In ChEMBL document CHEMBL1201862, “PubChem BioAssay data set” (2004):
Structures can show the parent of a compound that is named as a salt.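 Tested at 5 concentrations; 48 h exposure; 96-well plates; endpoints linearly interpolated, else capped at highest concentration. GI50 is the concentration that inhibits growth by half.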 The source made the active and inactive calls. Rule as the data show it: active = GI50 up to about 1.1 µM and inactive = higher.

Experiments:
Experiment in all cases: inhibition of tumour cell growth, NCI panel, 48 h
HCC 2998 = test system: HCC 2998
SK-MEL-5 = test system: SK-MEL-5
KM12 = test system: KM12
NCI-H23 = test system: NCI-H23
OVCAR-3 = test system: OVCAR-3
CAKI-1 = test system: CAKI-1
T47D = test system: T47D
MOLT-4 = test system: MOLT-4
SK-MEL-2 = test system: SK-MEL-2
RPMI-8226 = test system: RPMI-8226
UACC-257 = test system: UACC-257
HOP-62 = test system: HOP-62
M14 = test system: M14
OVCAR-8 = test system: OVCAR-8
SNB-19 = test system: SNB-19
Malme-3M = test system: Malme-3M
Hs-578T = test system: Hs-578T
NCI-H522 = test system: NCI-H522
CCRF-CEM = test system: CCRF-CEM
LOX IMVI = test system: LOX IMVI

| SMILES | GI50 (HCC 2998) | GI50 (SK-MEL-5) | GI50 (KM12) | GI50 (NCI-H23) | GI50 (OVCAR-3) | GI50 (CAKI-1) | GI50 (T47D) | GI50 (MOLT-4) | GI50 (SK-MEL-2) | GI50 (RPMI-8226) | GI50 (UACC-257) | GI50 (HOP-62) | GI50 (M14) | GI50 (OVCAR-8) | GI50 (SNB-19) | GI50 (Malme-3M) | GI50 (Hs-578T) | GI50 (NCI-H522) | GI50 (CCRF-CEM) | GI50 (LOX IMVI) |
| --- | --- | --- | --- | --- | --- | --- | --- | --- | --- | --- | --- | --- | --- | --- | --- | --- | --- | --- | --- | --- |
| CC1=CSC(O)(c2ccc(Cl)cc2)c2noc(=O)n21 (stereo not given) | 14.4 µM (inactive) | 59.6 µM (inactive) | > 100 µM (inactive) | 48.4 µM (inactive) | 72.1 µM (inactive) | > 100 µM (inactive) | 54.8 µM (inactive) | > 100 µM (inactive) | 85.9 µM (inactive) | 57.7 µM (inactive) | 24.4 µM (inactive) | > 100 µM (inactive) | > 100 µM (inactive) | 97.7 µM (inactive) | > 100 µM (inactive) | – | – | – | – | – |
| CCc1ncc(CO)n1Cc1cccc2ccccc12 | – | > 100 µM (inactive) | 98.2 µM (inactive) | > 100 µM (inactive) | > 100 µM (inactive) | > 100 µM (inactive) | 77.3 µM (inactive) | – | > 100 µM (inactive) | 73.3 µM (inactive) | 81.8 µM (inactive) | > 100 µM (inactive) | > 100 µM (inactive) | > 100 µM (inactive) | > 100 µM (inactive) | > 100 µM (inactive) | > 100 µM (inactive) | > 100 µM (inactive) | – | – |
| Cc1cc(C)c(S(=O)(=O)N(CCCCCCN)OCCCON(CCCCCCN)S(=O)(=O)c2c(C)cc(C)cc2C)c(C)c1 | – | 1.82 µM (inactive) | 1.9 µM (inactive) | 1.63 µM (inactive) | 1.76 µM (inactive) | 1.94 µM (inactive) | 1.91 µM (inactive) | 2.44 µM (inactive) | 1.89 µM (inactive) | 2.43 µM (inactive) | 1.69 µM (inactive) | 1.8 µM (inactive) | 1.66 µM (inactive) | 1.79 µM (inactive) | 1.62 µM (inactive) | 1.45 µM (inactive) | 2.11 µM (inactive) | 1.73 µM (inactive) | 2.29 µM (inactive) | 1.7 µM (inactive) |
| CC1=NN(c2cccc(Cl)c2)C(=N/c2nc3ccccc3s2)/C1=C\C=C\c1ccccc1 | – | 20.6 µM (inactive) | 34.2 µM (inactive) | 32.1 µM (inactive) | 27 µM (inactive) | 28.4 µM (inactive) | 46.7 µM (inactive) | 0.369 µM (active) | – | 18.9 µM (inactive) | 31.5 µM (inactive) | 30.8 µM (inactive) | 42.3 µM (inactive) | 36.1 µM (inactive) | – | – | 24.3 µM (inactive) | 28.8 µM (inactive) | 1.77 µM (inactive) | 32.2 µM (inactive) |
| Cc1ccc(N/C(Sc2ccccc2)=C(/C(Cl)=C(Cl)Cl)[N+](=O)[O-])c(C)c1 | 17.7 µM (inactive) | 25.1 µM (inactive) | 17.3 µM (inactive) | 22.9 µM (inactive) | – | 17 µM (inactive) | – | 19.6 µM (inactive) | 19.5 µM (inactive) | 20.3 µM (inactive) | 18.2 µM (inactive) | 23.8 µM (inactive) | 21.5 µM (inactive) | 34.5 µM (inactive) | 22.3 µM (inactive) | 17.5 µM (inactive) | 44.4 µM (inactive) | 17.8 µM (inactive) | 17.9 µM (inactive) | 14.5 µM (inactive) |
| Nc1nc(N)nc(CCCCc2nc(N)nc(N)n2)n1 | – | > 100 µM (inactive) | > 100 µM (inactive) | > 100 µM (inactive) | > 100 µM (inactive) | > 100 µM (inactive) | > 100 µM (inactive) | > 100 µM (inactive) | > 100 µM (inactive) | > 100 µM (inactive) | > 100 µM (inactive) | > 100 µM (inactive) | > 100 µM (inactive) | > 100 µM (inactive) | > 100 µM (inactive) | > 100 µM (inactive) | > 100 µM (inactive) | > 100 µM (inactive) | > 100 µM (inactive) | > 100 µM (inactive) |
| O=c1c2c3ccccc3[nH]c2c2cccc3c2n1CCC3 | 29.2 µM (inactive) | 17.6 µM (inactive) | 33.9 µM (inactive) | 45.8 µM (inactive) | 30.6 µM (inactive) | – | 61 µM (inactive) | 25.5 µM (inactive) | – | – | 83 µM (inactive) | 54.1 µM (inactive) | 60.5 µM (inactive) | 50.9 µM (inactive) | > 100 µM (inactive) | 22 µM (inactive) | 21.2 µM (inactive) | – | 30.5 µM (inactive) | – |
| O=C(/C=C/c1ccc(O)c([N+](=O)[O-])c1)CC(=O)/C=C/c1ccc(O)c([N+](=O)[O-])c1 | – | 49.7 µM (inactive) | 30.5 µM (inactive) | 34.8 µM (inactive) | 26.6 µM (inactive) | – | – | – | 41.1 µM (inactive) | 14.4 µM (inactive) | > 100 µM (inactive) | 48.9 µM (inactive) | 65.8 µM (inactive) | 19.8 µM (inactive) | 88.9 µM (inactive) | – | > 100 µM (inactive) | 36.3 µM (inactive) | 30.5 µM (inactive) | 14.4 µM (inactive) |
| Cn1c(=O)n2n(c1=O)[C@@H](c1ccccc1)[C@H]2c1ccccc1 | > 100 µM (inactive) | > 100 µM (inactive) | > 100 µM (inactive) | 65.6 µM (inactive) | > 100 µM (inactive) | > 100 µM (inactive) | – | > 100 µM (inactive) | > 100 µM (inactive) | – | > 100 µM (inactive) | > 100 µM (inactive) | > 100 µM (inactive) | > 100 µM (inactive) | > 100 µM (inactive) | > 100 µM (inactive) | > 100 µM (inactive) | – | > 100 µM (inactive) | > 100 µM (inactive) |
| O=C(c1ccco1)N(C(=O)N1CCCCC1)c1ccccc1 | – | > 100 µM (inactive) | > 100 µM (inactive) | > 100 µM (inactive) | > 100 µM (inactive) | > 100 µM (inactive) | – | > 100 µM (inactive) | > 100 µM (inactive) | > 100 µM (inactive) | > 100 µM (inactive) | – | > 100 µM (inactive) | > 100 µM (inactive) | > 100 µM (inactive) | 41.2 µM (inactive) | > 100 µM (inactive) | – | > 100 µM (inactive) | > 100 µM (inactive) |
| CC(C)(C)OC(=O)N1CCCC1=O | > 10 µM (inactive) | > 10 µM (inactive) | > 10 µM (inactive) | > 10 µM (inactive) | > 10 µM (inactive) | – | > 10 µM (inactive) | > 10 µM (inactive) | > 10 µM (inactive) | > 10 µM (inactive) | > 10 µM (inactive) | > 10 µM (inactive) | > 10 µM (inactive) | > 10 µM (inactive) | > 10 µM (inactive) | > 10 µM (inactive) | > 10 µM (inactive) | – | > 10 µM (inactive) | > 10 µM (inactive) |
| CCOP(=O)(OCC)/C(C#N)=C/c1cnc[nH]1 | > 100 µM (inactive) | > 100 µM (inactive) | > 100 µM (inactive) | > 100 µM (inactive) | > 100 µM (inactive) | > 100 µM (inactive) | – | > 100 µM (inactive) | > 100 µM (inactive) | > 100 µM (inactive) | > 100 µM (inactive) | > 100 µM (inactive) | > 100 µM (inactive) | > 100 µM (inactive) | > 100 µM (inactive) | > 100 µM (inactive) | > 100 µM (inactive) | > 100 µM (inactive) | > 100 µM (inactive) | > 100 µM (inactive) |
| CC(=O)Nc1c(Nc2ccccc2)[nH]c(C)nc1=S | > 100 µM (inactive) | > 100 µM (inactive) | > 100 µM (inactive) | > 100 µM (inactive) | > 100 µM (inactive) | > 100 µM (inactive) | – | > 100 µM (inactive) | > 100 µM (inactive) | > 100 µM (inactive) | > 100 µM (inactive) | > 100 µM (inactive) | > 100 µM (inactive) | > 100 µM (inactive) | > 100 µM (inactive) | > 100 µM (inactive) | – | > 100 µM (inactive) | > 100 µM (inactive) | > 100 µM (inactive) |
| O=C(O)CCCC(=O)Nn1c(Cc2ccc(Cl)cc2)n[nH]c1=O | – | > 100 µM (inactive) | > 100 µM (inactive) | > 100 µM (inactive) | > 100 µM (inactive) | > 100 µM (inactive) | > 100 µM (inactive) | > 100 µM (inactive) | > 100 µM (inactive) | > 100 µM (inactive) | > 100 µM (inactive) | > 100 µM (inactive) | > 100 µM (inactive) | > 100 µM (inactive) | – | > 100 µM (inactive) | > 100 µM (inactive) | 71.8 µM (inactive) | > 100 µM (inactive) | > 100 µM (inactive) |
| CC(=O)OCC1OC(N2C(=O)C(=O)c3ccccc32)C(OC(C)=O)C(OC(C)=O)C1OC(C)=O (stereo not given) | > 100 µM (inactive) | > 100 µM (inactive) | > 100 µM (inactive) | > 100 µM (inactive) | > 100 µM (inactive) | > 100 µM (inactive) | – | > 100 µM (inactive) | > 100 µM (inactive) | > 100 µM (inactive) | > 100 µM (inactive) | > 100 µM (inactive) | > 100 µM (inactive) | > 100 µM (inactive) | > 100 µM (inactive) | > 100 µM (inactive) | – | > 100 µM (inactive) | > 100 µM (inactive) | > 100 µM (inactive) |
| CC[C@]12CN3CCc4c([nH]c5ccccc45)[C@@](C(=O)OC)(c4cc5c(cc4OC)N(C)[C@H]4[C@@](O)(C(=O)OC)[C@H](OC(C)=O)[C@]6(CC)C=CCN7CC[C@]54[C@@H]76)CC(C3)[C@H]1O2 (stereo not given in full) [VINLEUROSINE SULFATE] | < 0.01 µM (active) | < 0.01 µM (active) | < 0.0276 µM (active) | 0.126 µM (active) | 0.0104 µM (active) | 2.16 µM (inactive) | – | < 0.0156 µM (active) | 0.0968 µM (active) | 0.0581 µM (active) | 3.24 µM (inactive) | 0.1 µM (active) | 0.171 µM (active) | 0.449 µM (active) | 0.0553 µM (active) | – | 0.108 µM (active) | < 0.01 µM (active) | < 0.019 µM (active) | < 0.01 µM (active) |
